Results as given in patent US6384080B1, “Anthranilic acid derivatives as inhibitors of the cGMP-phosphodiesterase” (Fujisawa Pharmaceutical Co., Ltd., priority 1998, dated 2002).
Where a name gives a salt, the structure may show the parent alone.

biological target: T1, human platelet PDE-V (Homo sapiens, UniProt O76074); test: cGMP-Phosphodiesterase (PDE) assay, enzymatic inhibitory test; format: biochemical; conditions: not given
T1 construct: Human platelet cGMP-PDE was separated from other isozymes in human platelets; from tissue; host or cells: human platelets
Procedure: cGMP-Phosphodiesterase (PDE) Assay
Human platelet cGMP-PDE was separated from other isozymes in human platelets by a modification of the method of Thompson et. al. (see Cyclic Nucleotide Phosphodiesterase (PDE), in Methods of Enzymatic analysis, Vol 4, p127-234, 1984). In enzyme inhibition assays, the test compounds were dissolved in DMSO and then diluted with assay buffer (50 mM Tris-HCl, 0.077 mg/ml dithiothreitol and 10 mg/ml snake venom, 1 mM EGTA, pH 8.0), at final concentrations ranging from 10^−10 to 10^−6 M. Assays were performed at 0.1 μM substrate ([^3H]-cGMP) concentration, at 30° C. for 10 minutes using enzyme dilutions which gave 10-20% hydrolysis of substrate. Each assay was initiated by addition of substrate and terminated by addition of anion exchange resin (Dowex® 1-X8, 250 mg/mg) followed by centrifugation for 10 minutes (3000 rpm, at 4° C.). Radioactivity of supernatant (^3H-GMP) was assayed by liquid scintillation counting.

Structure (SMILES)	IC50
O=C(NCc1ccc([N+](=O)[O-])cc1)c1cc([N+](=O)[O-])ccc1NC1CCCC1 [2-(Cyclopentylamino)-5-nitro-N-(4-nitrobenzyl)benzamide]	< 10 nM
O=C(NCc1ccc2c(c1)OCO2)c1cc([N+](=O)[O-])ccc1NC(CCl)CCl [2-[2-Chloro-1-(chloromethyl)ethylamino]-5-nitro-N-(1,3-benzodioxol-5-ylmethyl)benzamide]	< 10 nM

same assay, conditions: human platelet PDE-V; 0.1 μM [3H]-cGMP substrate, 30° C., 10 minutes; read-out: Inhibitory activity IC50

Structure (SMILES)	IC50
O=C(NCc1ccccc1)c1cc([N+](=O)[O-])ccc1N[C@@H]1CCC[C@H]1O (relative stereo) [N-Benzyl-2-(trans-2-hydroxycyclopentylamino)-5-nitrobenzamide]	< 10 nM
O=C(NCc1ccc2c(c1)OCO2)c1cc([N+](=O)[O-])ccc1NC1CCS(=O)(=O)CC1 [2-(1,1-dioxotetrahydro-2H-thiopyran-4-ylamino)-5-nitro-N-(1,3-benzodioxol-5-ylmethyl)benzamide]	< 10 nM
COc1ccc(CNC(=O)c2cc([N+](=O)[O-])ccc2NC2CCN(C(=N)N)CC2)cc1OC [2-(1-Amidinopiperidin-4-ylamino)-N-(3,4-dimethoxybenzyl)-5-nitrobenzamide hydrochloride]	< 10 nM
O=C(NCc1ccc2c(c1)OCO2)c1cc([N+](=O)[O-])ccc1NC1CCN(Cc2ccccc2)CC1 [2-(1-Benzylpiperidin-4-ylamino)-5-nitro-N-(1,3-benzodioxol-5-ylmethyl)benzamide]	< 10 nM
O=CN1CCC(Nc2ccc([N+](=O)[O-])cc2C(=O)NCc2ccc3c(c2)OCO3)CC1 [2-(1-Formyl-4-piperidinylamino)-5-nitro-N-(1,3-benzodioxol-5-ylmethyl)benzamide]	< 10 nM
CC(=O)N1CCC(Nc2ccc([N+](=O)[O-])cc2C(=O)NCc2ccc3c(c2)OCO3)CC1 [2-(1-acetyl-4-piperidinylamino)-5-nitro-N-(1,3-benzodioxol-5-ylmethyl)benzamide]	< 10 nM
CN1CCC(Nc2ccc([N+](=O)[O-])cc2C(=O)NCc2ccc3c(c2)OCO3)CC1 [2-(1-methyl-4-piperidinylamino)-5-nitro-N-(1,3-benzodioxol-5-ylmethyl)benzamide]	< 10 nM
NC(=O)C1CCC(Nc2ccc([N+](=O)[O-])cc2C(=O)NCc2ccc3c(c2)OCO3)CC1 (centres unmarked) [2-(4-carbamoylcyclohexylamino)-5-nitro-N-(1,3-benzodioxol-5-ylmethyl)benzamide]	< 10 nM
O=C(NCc1ccc2c(c1)OCO2)c1cc([N+](=O)[O-])ccc1NC1CCC(C(=O)O)CC1 (centres unmarked) [2-(4-carboxycyclohexylamino)-5-nitro-N-(1,3-benzodioxol-5-ylmethyl)benzamide]	< 10 nM
O=C(NCc1cccs1)c1cc([N+](=O)[O-])ccc1NC1CCCC1 [2-(Cyclopentylamino)-5-nitro-N-(2-thienylmethyl)benzamide]	< 10 nM
O=C(NCCCc1ccccc1)c1cc([N+](=O)[O-])ccc1NC1CCCC1 [2-(Cyclopentylamino)-5-nitro-N-(3-phenylpropyl)benzamide]	< 10 nM
O=C(NCc1ccc(C(F)(F)F)cc1)c1cc([N+](=O)[O-])ccc1NC1CCCC1 [2-(Cyclopentylamino)-5-nitro-N-[4-(trifluoromethyl)benzyl]benzamide]	< 10 nM
O=C(NCCc1ccccc1)c1cc([N+](=O)[O-])ccc1NC1CCCC1 [2-(Cyclopentylamino)-5-nitro-N-phenethylbenzamide]	< 10 nM
O=C(NCc1ccc(Cl)cc1Cl)c1cc([N+](=O)[O-])ccc1NC1CCCC1 [2-(Cyclopentylamino)-N-(2,4-dichlorobenzyl)-5-nitrobenzamide]	< 10 nM
O=C(NCc1ccc(Cl)c(Cl)c1)c1cc([N+](=O)[O-])ccc1NC1CCCC1 [2-(Cyclopentylamino)-N-(3,4-dichlorobenzyl)-5-nitrobenzamide]	< 10 nM
O=C(NCc1ccc(F)c(F)c1)c1cc([N+](=O)[O-])ccc1NC1CCCC1 [2-(Cyclopentylamino)-N-(3,4-difluorobenzyl)-5-nitrobenzamide]	< 10 nM
O=C(NCc1ccc(F)cc1)c1cc([N+](=O)[O-])ccc1NC1CCCC1 [2-(Cyclopentylamino)-N-(4-fluorobenzyl)-5-nitrobenzamide]	< 10 nM
COc1cc(CNC(=O)c2cc([N+](=O)[O-])ccc2NC2CCCC2)ccc1O [2-(Cyclopentylamino)-N-(4-hydroxy-3-methoxybenzyl)-5-nitrobenzamide]	< 10 nM
COc1ccc(CNC(=O)c2cc([N+](=O)[O-])ccc2NC2CCCC2)cc1 [2-(Cyclopentylamino)-N-(4-methoxybenzyl)-5-nitrobenzamide]	< 10 nM
Cc1ccc(CNC(=O)c2cc([N+](=O)[O-])ccc2NC2CCCC2)cc1 [2-(Cyclopentylamino)-N-(4-methylbenzyl)-5-nitrobenzamide]	< 10 nM

Structure (SMILES)	IC50
O=C(NCc1ccco1)c1cc([N+](=O)[O-])ccc1NC1CCCC1 [2-(Cyclopentylamino)-N-furfuryl-5-nitrobenzamide]	< 10 nM
CCCCCCNC(=O)c1cc([N+](=O)[O-])ccc1NC1CCCC1 [2-(Cyclopentylamino)-N-hexyl-5-nitrobenzamide]	< 10 nM
COc1ccc(CNC(=O)c2cc([N+](=O)[O-])ccc2N[C@H]2CC[C@@H](NC=O)CC2)cc1OC [2-(cis-4-Formamidocyclohexylamino)-N-(3,4-dimethoxybenzyl)-5-nitrobenzamide]	< 10 nM
COCCOc1ccc(CNC(=O)c2cc([N+](=O)[O-])ccc2N[C@H]2CC[C@@H](O)CC2)cc1OC [2-(cis-4-Hydroxycyclohexylamino)-N-[3-methoxy-4-(2-methoxyethoxy)benzyl]-5-nitrobenzamide]	< 10 nM
O=C(NCc1ccc2c(c1)OCO2)c1cc([N+](=O)[O-])ccc1N[C@H]1CC[C@@H](Cl)CC1 [2-(cis-4-chlorocyclohexylamino)-5-nitro-N-(1,3-benzodioxol-5-ylmethyl)benzamide]	< 10 nM
CC(C)(C)Nc1ccc([N+](=O)[O-])cc1C(=O)NCc1ccc2c(c1)OCO2 [2-(tert-Butylamino)-5-nitro-N-(1,3-benzodioxol-5-ylmethyl)benzamide]	< 10 nM
CSc1ccc(CNC(=O)c2cc([N+](=O)[O-])ccc2N[C@H]2CC[C@H](O)CC2)cc1 [2-(trans-4-Hydroxycyclohexyl)amino-N-[4-(methylthio)benzy]-5-nitrobenzamide]	< 10 nM
CCOC(=O)N1CCC(Nc2ccc([N+](=O)[O-])cc2C(=O)NCc2ccc3c(c2)OCO3)CC1 [2-[1-(Ethoxycarbonyl)piperidin-4-ylamino]-5-nitro-N-(1,3-benzodioxol-5-ylmethyl)benzamide]	< 10 nM
O=C(NCc1ccc2c(c1)OCO2)c1cc([N+](=O)[O-])ccc1NC1(CO)CCCC1 [2-[1-(Hydroxymethyl)cyclopentylamino]-5-nitro-N-(1,3-benzodioxol-5-ylmethyl)benzamide]	< 10 nM
CC(C)(C)OC(=O)N1CCC(Nc2ccc([N+](=O)[O-])cc2C(=O)NCc2ccc3c(c2)OCO3)CC1 [2-[1-(tert-Butoxycarbonyl)-4-piperidinylamino]-5-nitro-N-(1,3-benzodioxol-5-ylmethyl)benzamide]	< 10 nM
COc1ccc(CNC(=O)c2cc([N+](=O)[O-])ccc2NC2CCN(C(=O)OC(C)(C)C)CC2)cc1OC [2-[1-(tert-Butoxycarbonyl)piperidin-4-ylamino]-N-(3,4-dimethoxybenzyl)-5-nitrobenzamide]	< 10 nM
COc1ccc(CNC(=O)c2cc([N+](=O)[O-])ccc2NC2CCN(C(=NC(=O)OC(C)(C)C)NC(=O)OC(C)(C)C)CC2)cc1OC [2-[1-[1,3-Bis(tert-butoxycarbonyl)amidino]piperidin-4-ylamino]-N-(3,4-dimethoxybenzyl)-5-nitrobenzamide]	< 10 nM
COc1cc(CNC(=O)c2cc([N+](=O)[O-])ccc2NC(CO)CO)ccc1C [2-[2-Hydroxy-1-hydroxymethyl)ethylamino]-N-(3-methoxy-4-methylbenzyl)-5-nitrobenzamide]	< 10 nM
O=C(OC1CCC(Nc2ccc([N+](=O)[O-])cc2C(=O)NCc2ccccc2)C1)c1ccccc1 (centres unmarked) [2-[3-(Benzoyloxy)cyclopentylamino]-N-benzyl-5-nitrobenzamide]	< 10 nM
COC(=O)C1CCC(Nc2ccc([N+](=O)[O-])cc2C(=O)NCc2ccc3c(c2)OCO3)CC1 (centres unmarked) [2-[4-(Methoxycarbonyl)cyclohexylamino]-5-nitro-N-(1,3-benzodioxol-5-ylmethyl)benzamide]	< 10 nM
C[C@@H](O)[C@@H](CO)Nc1ccc([N+](=O)[O-])cc1C(=O)NCc1ccc2c(c1)OCO2 [2-[(1R, 2R)-2-Hydroxy-1-(hydroxymethyl)propylamino]-5-nitro-N-(1,3-benzodioxol-5-ylmethyl)benzamide]	< 10 nM
COc1ccc(CNC(=O)c2cc([N+](=O)[O-])ccc2N[C@H](C(N)=O)[C@@H](C)O)cc1OC [2-[(1S, 2R)-1-(Carbamoyl)-2-hydroxypropylamino]-N-(3,4-dimethoxybenzyl)-5-nitrobenzamide]	< 10 nM
COc1ccc(CNC(=O)c2cc([N+](=O)[O-])ccc2N[C@H]2CC[C@H](N)CC2)cc1OC [2-[(trans-4-Aminocyclohexyl)amino]-N-(3,4-dimethoxybenzyl)-5-nitrobenzamide]	< 10 nM
COc1ccc(CNC(=O)c2cc([N+](=O)[O-])ccc2N[C@H]2CC[C@H](NC(=NC(=O)OC(C)(C)C)NC(=O)OC(C)(C)C)CC2)cc1OC [2-{trans-4-[2,3-bis(tert-butoxycarbonyl)guanidino]cyclohexylamino}-N-(3,4-dimethoxybenzyl)-5-nitrobenzamide]	< 10 nM
